Assay results reported in patent US12139520B2 (priority 2020, dated 2024).
Bridge positions count the residues as written; N and C are the ends. Square brackets hold non-standard residues; d marks the D form. Peptide text beside a SMILES is read from it. Hyp = O=C(O)[C@@H]1C[C@@H](O)CN1

Legend:
hAMY3 receptor = target: T1, hAMY3 receptor (Homo sapiens, UniProt O60896+P30988); test: cAMP assay for in vitro receptor activation, hAMY3-R; assay type: cell-based; details: cAMP assay, hAMY3 receptor; read-out: hAMY3R EC50
T1 sequence (P30988 25-474): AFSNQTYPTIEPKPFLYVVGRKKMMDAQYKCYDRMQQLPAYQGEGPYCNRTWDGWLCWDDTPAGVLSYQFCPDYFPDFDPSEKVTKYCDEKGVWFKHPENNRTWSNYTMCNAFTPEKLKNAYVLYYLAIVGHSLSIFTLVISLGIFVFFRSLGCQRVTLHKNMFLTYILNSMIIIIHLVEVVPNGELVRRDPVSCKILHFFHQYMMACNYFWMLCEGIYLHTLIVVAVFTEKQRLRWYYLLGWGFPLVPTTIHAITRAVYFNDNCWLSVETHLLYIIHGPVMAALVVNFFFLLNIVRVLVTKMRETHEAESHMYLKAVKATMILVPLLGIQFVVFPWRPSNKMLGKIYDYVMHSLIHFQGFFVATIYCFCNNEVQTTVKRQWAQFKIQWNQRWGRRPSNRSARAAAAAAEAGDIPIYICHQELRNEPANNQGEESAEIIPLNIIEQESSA
T1 sequence (O60896 24-148 partner): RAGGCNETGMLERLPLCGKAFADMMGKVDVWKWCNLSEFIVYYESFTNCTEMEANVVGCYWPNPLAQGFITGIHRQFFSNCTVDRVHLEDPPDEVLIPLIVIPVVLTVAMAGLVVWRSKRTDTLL
Summary of the method: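 Thawed cells from a sub-cloned monoclonal hAMY3-overexpressing line are plated in DPBS containing 0.05% casein and 0.5 mM IBMX. Test compounds are added immediately at graded doses for 30 min at room temperature. Reagents for cAMP detection are then added, and TR-FRET is recorded after one hour.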

[1] = Physical stability of peptide analogues (Thioflavin T fibrillation); assay type: physicochemical; details: maximum ThT signal normalized between hAMY maximum and buffer background; 40° C., shaking, four days; pH 7 per table title
Summary of the method: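 Maximum ThT emission at 480 nm, after LOESS smoothing, is given as percent of the span from buffer background to hAMY. Conditions: 50 mM buffer at pH 4 or 7, 4 μM dye, 40 °C, repeated shaking, readings every 10 min for four days.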

hAM1 receptor = hAM1 receptor (Homo sapiens, UniProt O60895+Q16602); test: cAMP assay for in vitro receptor activation, hAM1-R; assay type: cell-based; details: cAMP assay, hAM1 receptor; read-out: hAM1R EC50
Chain of hAM1 receptor (Q16602 23-461): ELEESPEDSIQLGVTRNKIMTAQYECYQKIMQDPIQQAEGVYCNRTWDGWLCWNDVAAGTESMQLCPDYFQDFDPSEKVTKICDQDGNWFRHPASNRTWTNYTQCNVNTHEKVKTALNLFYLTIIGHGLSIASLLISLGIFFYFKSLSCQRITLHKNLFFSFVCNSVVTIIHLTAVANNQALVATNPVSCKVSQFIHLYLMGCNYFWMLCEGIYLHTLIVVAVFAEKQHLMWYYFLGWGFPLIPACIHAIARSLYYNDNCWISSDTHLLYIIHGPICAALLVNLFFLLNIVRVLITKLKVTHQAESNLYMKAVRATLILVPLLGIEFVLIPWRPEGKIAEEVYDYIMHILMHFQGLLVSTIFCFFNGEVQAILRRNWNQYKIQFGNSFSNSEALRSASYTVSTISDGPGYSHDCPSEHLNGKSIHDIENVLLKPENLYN
Chain of hAM1 receptor (O60895 43-175 partner): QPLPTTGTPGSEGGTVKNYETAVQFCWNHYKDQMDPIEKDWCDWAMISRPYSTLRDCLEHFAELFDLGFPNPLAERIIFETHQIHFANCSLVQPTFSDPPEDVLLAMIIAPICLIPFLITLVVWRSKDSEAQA
Summary of the method: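 Receptor activation, read as cAMP, was assessed in thawed cells of a monoclonal hAM1-overexpressing stable line, plated at 8000 cells/well in DPBS supplemented with 0.05% casein and 0.5 mM IBMX.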

Structure (SMILES) | EC50 (hAMY3 receptor) | Max ThT signal (%) [1] | EC50 (hAM1 receptor)
CC[C@H](C)[C@H](NC(=O)[C@H](CCC(N)=O)NC(=O)[C@H](Cc1c[nH]cn1)NC(=O)[C@H](C)NC(=O)[C@H](CC(C)C)NC(=O)[C@H](Cc1c[nH]c2ccccc12)NC(=O)[C@H](CCC(N)=O)NC(=O)[C@@H](NC(=O)[C@@H](NC(=O)[C@@H]1CSSC[C@H](NC(=O)CN)C(=O)N[C@@H](CCCNC(=N)N)C(=O)N[C@@H]([C@@H](C)O)C(=O)NCC(=O)N[C@@H]([C@@H](C)O)C(=O)N1)[C@@H](C)O)C(C)C)C(=O)N[C@@H](Cc1ccc(O)cc1)C(=O)N[C@@H](CCC(N)=O)C(=O)N[C@@H](Cc1ccccc1)C(=O)N[C@H](C(=O)N[C@@H](CC(=O)O)C(=O)N[C@@H](CCCCN)C(=O)N[C@@H](CC(=O)O)C(=O)N[C@@H](CCCCN)C(=O)N[C@@H](CC(=O)O)C(=O)N[C@@H](CC(N)=O)C(=O)N[C@H](C(=O)N[C@@H](C)C(=O)N1CCC[C@H]1C(=O)N[C@@H](CCCNC(=N)N)C(=O)N[C@@H](CO)C(=O)N[C@@H](CC(N)=O)C(=O)N[C@H](C(=O)NCC(=O)N1CCC[C@H]1C(=O)N[C@@H](CCC(N)=O)C(=O)NCC(=O)N1C[C@H](O)C[C@H]1C(N)=O)C(C)C)C(C)C)[C@@H](C)O [compound 342] (H-GCRTGTCTVQWLAHQIYQFTDKDKDNVAPRSNVGPQG[Hyp]-NH2; disulfide 2-7) | 0.054 nM | 19.800% | > 5000 nM
CC[C@H](C)[C@H](NC(=O)[C@H](CCC(N)=O)NC(=O)[C@H](Cc1c[nH]cn1)NC(=O)[C@H](C)NC(=O)[C@H](CC(C)C)NC(=O)[C@H](Cc1c[nH]c2ccccc12)NC(=O)[C@H](CCC(N)=O)NC(=O)[C@@H](NC(=O)[C@@H](NC(=O)[C@@H]1CSSC[C@H](NC(=O)CN)C(=O)N[C@@H](CCCNC(=N)N)C(=O)N[C@@H]([C@@H](C)O)C(=O)NCC(=O)N[C@@H]([C@@H](C)O)C(=O)N1)[C@@H](C)O)C(C)C)C(=O)N[C@@H](Cc1ccc(O)cc1)C(=O)N[C@@H](CCC(N)=O)C(=O)N[C@@H](Cc1ccccc1)C(=O)N[C@H](C(=O)N[C@@H](CC(=O)O)C(=O)N[C@@H](CCCCN)C(=O)N[C@@H](CC(=O)O)C(=O)N[C@@H](CCCCN)C(=O)N[C@@H](CC(=O)O)C(=O)N[C@@H](CC(N)=O)C(=O)N[C@H](C(=O)N[C@@H](C)C(=O)N1CCC[C@H]1C(=O)N[C@@H](CCCNC(=N)N)C(=O)N[C@@H](CO)C(=O)N[C@@H](CC(N)=O)C(=O)N[C@H](C(=O)NCC(=O)N1CCC[C@H]1C(=O)N[C@@H](CCC(N)=O)C(=O)NCC(=O)N[C@@H](Cc1ccc(O)cc1)C(N)=O)C(C)C)C(C)C)[C@@H](C)O [compound 346] (H-GCRTGTCTVQWLAHQIYQFTDKDKDNVAPRSNVGPQGY-NH2; disulfide 2-7; N-terminus assumed) | 0.085 nM | 1.200% | > 5000 nM
CC[C@H](C)[C@H](NC(=O)[C@H](CCC(N)=O)NC(=O)[C@H](Cc1c[nH]cn1)NC(=O)[C@H](C)NC(=O)[C@H](CC(C)C)NC(=O)[C@H](Cc1c[nH]c2ccccc12)NC(=O)[C@H](CCC(N)=O)NC(=O)[C@@H](NC(=O)[C@@H](NC(=O)[C@@H]1CSSC[C@H](NC(=O)CN)C(=O)N[C@@H](CCCNC(=N)N)C(=O)N[C@@H]([C@@H](C)O)C(=O)NCC(=O)N[C@@H]([C@@H](C)O)C(=O)N1)[C@@H](C)O)C(C)C)C(=O)N[C@@H](Cc1ccc(O)cc1)C(=O)N[C@@H](CCC(N)=O)C(=O)N[C@@H](Cc1ccccc1)C(=O)N[C@H](C(=O)N[C@@H](CC(=O)O)C(=O)N[C@@H](CCCCN)C(=O)N[C@@H](CC(=O)O)C(=O)N[C@@H](CCCCN)C(=O)N[C@@H](CC(=O)O)C(=O)N[C@@H](CC(N)=O)C(=O)N[C@H](C(=O)N[C@@H](C)C(=O)N1CCC[C@H]1C(=O)N[C@@H](CCCNC(=N)N)C(=O)N[C@@H](CO)C(=O)N[C@@H](CCCCN)C(=O)N[C@H](C(=O)NCC(=O)N1CCC[C@H]1C(=O)N[C@@H](CC(N)=O)C(=O)NCC(=O)N1C[C@H](O)C[C@H]1C(N)=O)C(C)C)C(C)C)[C@@H](C)O [compound 347] (H-GCRTGTCTVQWLAHQIYQFTDKDKDNVAPRSKVGPNG[Hyp]-NH2; disulfide 2-7; N-terminus assumed) | 0.068 nM | 15.500% | > 5000 nM
CC[C@H](C)[C@H](NC(=O)[C@H](CC(N)=O)NC(=O)[C@@H](NC(=O)[C@H](CCCNC(=N)N)NC(=O)[C@@H]1CCCN1C(=O)[C@H](C)NC(=O)[C@@H](NC(=O)[C@H](CC(N)=O)NC(=O)[C@H](CC(=O)O)NC(=O)[C@H](CCCCN)NC(=O)[C@H](CC(=O)O)NC(=O)[C@H](CCCCN)NC(=O)[C@H](CC(=O)O)NC(=O)[C@@H](NC(=O)[C@H](Cc1ccccc1)NC(=O)[C@H](CCC(N)=O)NC(=O)[C@H](Cc1ccc(O)cc1)NC(=O)[C@@H](NC(=O)[C@H](CCC(N)=O)NC(=O)[C@H](Cc1c[nH]cn1)NC(=O)[C@H](C)NC(=O)[C@H](CC(C)C)NC(=O)[C@H](Cc1c[nH]c2ccccc12)NC(=O)[C@H](CCC(N)=O)NC(=O)[C@@H](NC(=O)[C@@H](NC(=O)[C@@H]1CSSC[C@H](NC(=O)CN)C(=O)N[C@@H](CCCNC(=N)N)C(=O)N[C@@H]([C@@H](C)O)C(=O)NCC(=O)N[C@@H]([C@@H](C)O)C(=O)N1)[C@@H](C)O)C(C)C)[C@@H](C)CC)[C@@H](C)O)C(C)C)[C@@H](C)O)C(=O)NCC(=O)N1CCC[C@H]1C(=O)N[C@@H](CC(N)=O)C(=O)NCC(=O)N[C@@H](Cc1ccc(O)cc1)C(N)=O [compound 348] (H-GCRTGTCTVQWLAHQIYQFTDKDKDNVAPRTNIGPNGY-NH2; disulfide 2-7; N-terminus assumed) | 0.041 nM | 2.750% | > 5000 nM
CC[C@H](C)[C@H](NC(=O)[C@H](CCC(N)=O)NC(=O)[C@H](Cc1c[nH]cn1)NC(=O)[C@H](C)NC(=O)[C@H](CC(C)C)NC(=O)[C@H](Cc1c[nH]c2ccccc12)NC(=O)[C@H](CCC(N)=O)NC(=O)[C@@H](NC(=O)[C@@H](NC(=O)[C@@H]1CSSC[C@H](NC(=O)CN)C(=O)N[C@@H](CCCNC(=N)N)C(=O)N[C@@H]([C@@H](C)O)C(=O)NCC(=O)N[C@@H]([C@@H](C)O)C(=O)N1)[C@@H](C)O)C(C)C)C(=O)N[C@@H](Cc1ccc(O)cc1)C(=O)N[C@@H](CCC(N)=O)C(=O)N[C@@H](Cc1ccccc1)C(=O)N[C@H](C(=O)N[C@@H](CC(=O)O)C(=O)N[C@@H](CCCCN)C(=O)N[C@@H](CC(=O)O)C(=O)N[C@@H](CCCCN)C(=O)N[C@@H](CC(=O)O)C(=O)N[C@@H](CC(N)=O)C(=O)N[C@H](C(=O)N[C@@H](C)C(=O)N1CCC[C@H]1C(=O)N[C@@H](CCCNC(=N)N)C(=O)N[C@H](C(=O)N[C@@H](CCCCN)C(=O)N[C@H](C(=O)NCC(=O)N1CCC[C@H]1C(=O)N[C@@H](CCC(N)=O)C(=O)NCC(=O)N[C@@H](Cc1ccc(O)cc1)C(N)=O)C(C)C)[C@@H](C)O)C(C)C)[C@@H](C)O [compound 354] (H-GCRTGTCTVQWLAHQIYQFTDKDKDNVAPRTKVGPQGY-NH2; disulfide 2-7; N-terminus assumed) | 0.091 nM | 17.400% | > 5000 nM
CC[C@H](C)[C@H](NC(=O)[C@H](CCC(N)=O)NC(=O)[C@H](Cc1c[nH]cn1)NC(=O)[C@H](C)NC(=O)[C@H](CC(C)C)NC(=O)[C@H](Cc1c[nH]c2ccccc12)NC(=O)[C@H](CCC(N)=O)NC(=O)[C@@H](NC(=O)[C@@H](NC(=O)[C@@H]1CSSC[C@H](NC(=O)CN)C(=O)N[C@@H](CCCNC(=N)N)C(=O)N[C@@H]([C@@H](C)O)C(=O)NCC(=O)N[C@@H]([C@@H](C)O)C(=O)N1)[C@@H](C)O)C(C)C)C(=O)N[C@@H](Cc1ccc(O)cc1)C(=O)N[C@@H](CCC(N)=O)C(=O)N[C@@H](Cc1ccccc1)C(=O)N[C@H](C(=O)N[C@@H](CC(=O)O)C(=O)N[C@@H](CCCCN)C(=O)N[C@@H](CC(=O)O)C(=O)N[C@@H](CCCCN)C(=O)N[C@@H](CC(=O)O)C(=O)N[C@@H](CC(N)=O)C(=O)N[C@H](C(=O)N[C@@H](C)C(=O)N1CCC[C@H]1C(=O)N[C@@H](CCCNC(=N)N)C(=O)N[C@H](C(=O)N[C@@H](CC(N)=O)C(=O)N[C@H](C(=O)N[C@@H](CO)C(=O)N1CCC[C@H]1C(=O)N[C@@H](CC(N)=O)C(=O)NCC(=O)N1C[C@H](O)C[C@H]1C(N)=O)C(C)C)[C@@H](C)O)C(C)C)[C@@H](C)O [compound 358] (H-GCRTGTCTVQWLAHQIYQFTDKDKDNVAPRTNVSPNG[Hyp]-NH2; disulfide 2-7; N-terminus assumed) | 0.071 nM | 24.350% | > 5000 nM
